Experiment [1] deals with Mouse ear edema reaction (egg albumin-induced). Briefly: Ear Edema Reaction Inhibitory Activity in Mice. Type of experiment: in vivo, BALB/c mice. The settings on record: oral, 1 hour before induction, ear thickness 1 hour after induction. The procedure: Ear Edema Reaction Inhibitory Activity in Mice [Test Inflammation]
This test was test was carried out in accordance with the method of Sawada et al. (Clin. Exp. Allergy, Vol. 27, pp. 225-231, 1996). Each of BALB/c mice was immunized by the intraperitoneal injection of 1 μg of egg albumin which had been adsorbed to 1 mg of ALUM. After 14 days of the immunization, ear edema reaction was induced by intracutaneous injection of 1 μg of egg albumin into mouse earlobe. Ear edema (×10^2 mm) was calculated by measuring thickness of the ear before and 1 hour after the induction with a dial thickness gage (Peacok). Each of the drugs to be tested (compounds 1 and 2) was suspended in 0.5% hydropropylmethylcellulose (HPMC) solution and orally administered 1 hour before the reaction induction. Ear edema caused by the antigen was calculated by subtracting ear edema after respective time of induction in the case of the same treatment of normal mice, and the ear edema inhibition ratio (%) of the drugs to be tested was calculated based on the solvent-administered (control) group.

The test system of experiment [2] is IL-4 production by CD4^+ T cells. Briefly: Interleukin-4 (IL-4) Production Inhibitory Activity. Type of experiment: cell-based. The following applies: 24 h; mouse spleen CD4^+ T cells; IL-4 in supernatant by ELISA after 1 day; read-out: IL-4 production inhibition IC50. The procedure:
Interleukin-4 (IL-4) Production Inhibitory Activity
This test was carried out in accordance with the method of Shelby et al. (J. Allergy Clin. Immunol., Vol. 100, No. 4, 511-519 (1997)). That is, CD4^+ T cells were purified from mouse spleen cells and suspended in 10% FCS-containing RPMI 1640 culture medium, and the cell suspension was inoculated into wells of a 24 well culture plate, which had been coated with anti-rat IgG, at a density of 3×10^6 cells per well. Anti-mouse CD3 antibody and anti-mouse CD28 antibody were added thereto, and the cells were cultured at 37° C. for 3 days in an atmosphere of 5% CO2. The thus grown cells were recovered, washed three times with HBSS (Hank's balanced salt solution) and then suspended in 10% FCS-containing RPMI 1640 culture medium. The cell suspension was inoculated into wells of a 24 well culture plate at a density of 1×10^6 cells per well, mixed with IL-2 and cultured for additional 3 days. The resulting cells were recovered, washed three times with HBSS and then suspended in 10% FCS-containing RPMI 1640 culture medium. The cell suspension was inoculated into wells of a 24 well culture plate, which had been coated with anti-rat IgG, at a density of 2×10^6 cells per well, anti-mouse CD3 antibody and anti-mouse CD28 antibody were added thereto, and the cells were again cultured for 1 day. The culture supernatant was recovered from each well to measure the amount of produced IL-4 by ELISA. Each drug to be tested was treated at the time of the second addition of anti-mouse CD3 antibody and anti-mouse CD28 antibody to calculate its inhibition percentage based on the control IL-4 production by the addition of the solvent alone, and IC50 (50% inhibition concentration) of each drug to be tested was calculated based on the regression line.
Background: An ELISA detects its analyte on a solid surface through an enzyme-linked reagent.

Experiment [3] has as its system Airway reactivity acceleration (antigen-induced). Briefly: Antigen-Induced Airway Reactivity Acceleration Inhibitory Activity in Mice [Test on Chronic Inflammation]. The following applies: oral, once a day for 10 days, acetylcholine 30 μg/animal i.v. It counts as in vivo, BALB/c mice. How it is done: Antigen-Induced Airway Reactivity Acceleration Inhibitory Activity in Mice [Test on Chronic Inflammation]
The model for this test was prepared out in accordance with the method of Nagai et al. (Life Sciences, Vol. 54, pp. 471-475, 1994). Each of BALB/c mice was immunized by the intraperitoneal injection of 1 μg of egg albumin which had been adsorbed to 1 mg of ALUM. After 14 days of the immunization, each animal was exposed to 1% egg albumin solution using an ultrasonic nebulizer, and this treatment was repeated three times at 3 day intervals. After 24 hours of the final exposure, the airway contraction reaction against intravenously injected acetylcholine (30 μg/animal) was measured as overflow volume (×0.01 ml) by the modified method of Konzett and Rossler under pentobarbital anesthesia. Each of the drugs to be tested (compounds 1 and 2) was suspended in 0.5% HPMC solution and orally administered once a day for a total of 10 days starting from the day before the antigen exposure until the day of final exposure. Accelerated quantity of the airway contraction reaction caused by the antigen exposure was calculated by subtracting the contraction reaction against intravenously injected acetylcholine in the case of the same treatment of normal mice, and the airway reactivity acceleration inhibition ratio (%) of the drugs to be tested was calculated based on the solvent-administered (control) group.

The target of the next experiment is PDE(IV). Briefly: Phosphodiesterase IV (PDE (IV)) Inhibitory Activity. Type of experiment: biochemical. The settings on record: rat brain PDE(IV); 3H-cAMP 1 μM; 37° C., 10 minutes; read-out: PDE(IV) inhibition IC50. The procedure:
Phosphodiesterase IV (PDE (IV)) Inhibitory Activity
Purification of PDE (IV) and measurement of its activity were carried out by partially modifying the method of Saeki et al. (Biochem. Pharmacol., Vol. 46, 833-839, 1993). That is, PDE(IV) was purified by centrifuging rat brain homogenate at 105,000×g, applying the resulting supernatant to a Q-Sepharose column and then eluting the protein with a density gradient of 0 to 0.5 M NaCl.
Activity of PDE(IV) was measured by the following two step procedure. Using 3H-cAMP (1 μM in final concentration) as the substrate, the reaction was carried out at 37° C. for 10 minutes in a reaction solution containing tris(hydroxyl)aminomethane (50 mM, pH B8.0), EGTA (0.1 mM) and MgCl2 (0.1 mM) and then the reaction was stopped by incubating the reaction solution at 95° C. for 5 minutes. The thus formed 5'-AMP was hydrolyzed with 5'-nucleotidase, and AG1 X-8 resin was added thereto to effect adsorption of unreacted CAMP. After centrifugation, 3H-adenosinewas counted using a scintillation counter.

The subject of a further experiment is IL-4 production. The settings on record: in words, background art; cited from earlier work.

The structures appear in SMILES notation.

As to `COc1ccc(-c2nc3ccc(-n4cncn4)cc3[nH]2)cc1OC(C)C` [Compound 1, 2-(3-isopropoxy-4-methoxyphenyl)-5-(1,2,4-triazol-1-yl)benzimidazole], the “Mouse ear edema reaction inhibition” value in experiment [1] (30 mg/kg) was determined as 60%. Moreover, the results for the IC50 (in experiment [2]; on PDE(IV)) were 4300 nM and 20 nM, respectively. Besides, the “Airway reactivity acceleration inhibition” value in experiment [3] (10 mg/kg) worked out at 58%.
`COc1ccc(-c2nc3ccc(-n4cncn4)cc3[nH]2)cc1OC1CCCC1` [Compound 2, 2-(3-cyclopentyloxy-4-methoxyphenyl)-5-(1,2,4-triazol-1-yl)benzimidazole]: in experiment [1] (30 mg/kg), the “Mouse ear edema reaction inhibition” value was 78%. Further, in experiment [3] (30 mg/kg), the “Airway reactivity acceleration inhibition” value is recorded as 47%.
Consider `COc1ccc(-c2nc3cc(-n4cncn4)ccc3[nH]2)cc1OCC1CC1` [Compound 11], for which the IC50 – broadly, the concentration that inhibits the measured activity by half – in experiment [2] worked out at 5500 nM; at PDE(IV), 1600 nM.
Turning to `COc1ccc(-c2nc3ccc(-n4cncn4)cc3[nH]2)cc1OC1C=CCCC1` (stereo not drawn) [Compound 14, 2-[3-(2-cyclohexenyloxy)-4-methoxyphenyl]-5-(1,2,4-triazol-1-yl)benzimidazole], the IC50 came to 6100 nM in experiment [2] and 540 nM at PDE(IV).
In the same order, the values of `COc1ccc(-c2nc3cc(-n4cncn4)ccc3[nH]2)cc1OC/C=C/c1ccccc1` [Compound 18] are 5100 nM and 51 nM.
For the compound `COc1ccc(-c2nc3cc(-n4cncn4)ccc3[nH]2)cc1OC1C=CCCCC1` (stereo not drawn) [Compound 25], the IC50 was determined as 2800 nM in experiment [2] and 730 nM at PDE(IV).
On to `COc1ccc(-c2nc3cc(-n4cncn4)ccc3[nH]2)c(OC)c1` [Control compound 2], for which the “Mouse ear edema reaction inhibition” value in experiment [1] (30 mg/kg) amounted to 17%. Besides, the “Airway reactivity acceleration inhibition” value in experiment [3] (30 mg/kg) is reported as 30%.
For the compound `COc1ccc(-c2nc3cc(C(=O)O)ccc3[nH]2)cc1OC1CCCC1` [Control compound 4], in experiment [1] (100 mg/kg), the “Mouse ear edema reaction inhibition” value is 0%. Also, in experiment [3] (30 mg/kg), the “Airway reactivity acceleration inhibition” value is recorded as -17%.
In the same order, the values of `COc1ccc(-c2nc3cc(C(=O)O)ccc3[nH]2)cc1OC1Cc2ccccc2C1` [Control compound 5] are 0% and -3%.
Take `COc1ccc(/C(C)=N/OC(N)=O)cc1OC1CCCC1` [PDA-641]: in the experiment with IL-4 production, the “IL-4 production inhibitory activity” value is listed as “weak”.

The values are drawn from patent US6248768A, “Benzimidazole derivatives and pharmacologically acceptable salts thereof” (Taiho Pharmaceutical Co., Ltd., priority 1997, dated 2001).
